# Test results: patent US20260355196A1, “INHIBITORS AND DEGRADERS OF PIP4K PROTEIN” (Larkspur Biosciences, Inc., priority 2023, published 2026)
# Biological target: T1, PIP4K2C (Homo sapiens, UniProt Q8TBX8)
# T1 sequence (Q8TBX8 1-421): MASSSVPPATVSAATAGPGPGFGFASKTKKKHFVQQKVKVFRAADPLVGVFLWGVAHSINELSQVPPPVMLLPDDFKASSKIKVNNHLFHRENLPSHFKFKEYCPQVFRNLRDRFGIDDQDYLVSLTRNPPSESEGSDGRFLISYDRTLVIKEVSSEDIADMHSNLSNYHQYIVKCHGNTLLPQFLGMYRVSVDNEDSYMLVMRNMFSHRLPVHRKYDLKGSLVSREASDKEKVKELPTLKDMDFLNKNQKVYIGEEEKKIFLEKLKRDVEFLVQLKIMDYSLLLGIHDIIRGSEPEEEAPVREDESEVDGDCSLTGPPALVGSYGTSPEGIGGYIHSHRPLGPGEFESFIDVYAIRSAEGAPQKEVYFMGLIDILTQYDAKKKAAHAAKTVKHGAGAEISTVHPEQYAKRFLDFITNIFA
# Experiment: HiBiT PIP4K2C degradation assay in MOLT-4 cells (endogenous PIP4K2C C-terminally tagged with HiBiT)
# Type: cell-based
# Set-up: untagged in primary human PBMCs and monocyte-derived dendritic cells
# Conditions: 24 hours incubation, MOLT-4, top concentration 10 micromolar; read-out: HiBIT-degradation MOLT4 PIP4k2C 24 hours DC50
# How it was run: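 Endogenous PIP4K2C was C-terminally HiBiT-tagged by CRISPR-Cas9 in MOLT-4 cells, which were treated with a 10-point, 3-fold dilution series from 10 micromolar in duplicate for 24 or 6 hours at 37 C. Remaining protein was read by HiBiT lytic luminescence, and DC50 came from a Hill fit.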
row,SMILES,DC50 [nM]
1,"O=C1CCC(Nc2ccc(C3CCN(CCC4CCN(C(=O)[C@H]5CCC[C@@H](Nc6ncc(F)c(-c7cccc(-n8ccccc8=O)c7)n6)C5)CC4)CC3(F)F)c(F)c2)C(=O)N1 (stereo partly drawn) [Compound 311, 3-((4-(3,3-difluoro-1-(2-(1-((1S,3R)-3-((5-fluoro-4-(3-(2-oxopyridin-1(2H)-yl)phenyl)pyrimidin-2-yl)amino)cyclohexane-1-carbonyl)piperidin-4-yl)ethyl)piperidin-4-yl)-3-fluorophenyl)amino)piperidine-2,6-dione]",< 500
2,"Cn1c(=O)n(C2CCC(=O)NC2=O)c2ccc(C3CCN(CC4CCN(CC(=O)N5CCC(Nc6ncc(F)c(-c7cccc(-n8ccccc8=O)c7)n6)CC5)CC4)CC3)cc21 (stereo not drawn) [Compound 312, 3-(5-(1-((1-(2-(4-((5-fluoro-4-(3-(2-oxopyridin-1(2H)-yl)phenyl)pyrimidin-2-yl)amino)piperidin-1-yl)-2-oxoethyl)piperidin-4-yl)methyl)piperidin-4-yl)-3-methyl-2-oxo-2,3-dihydro-1H-benzo[d]imidazol-1-yl)piperidine-2,6-dione]",< 500
3,"O=C1CCC(Nc2ccc(C3CCN(CC4CCN(CC(=O)N[C@H]5CC[C@H](Nc6ncc(F)c(-c7cccc(-n8ccccc8=O)c7)n6)CC5)CC4)CC3)c(F)c2)C(=O)N1 (stereo partly drawn) [Compound 313, trans-2-(4-((4-(4-((2,6-dioxopiperidin-3-yl)amino)-2-fluorophenyl)piperidin-1-yl)methyl)piperidin-1-yl)-N-(4-((5-fluoro-4-(3-(2-oxopyridin-1(2H)-yl)phenyl)pyrimidin-2-yl)amino)cyclohexyl)acetamide]",< 500
4,"O=C1CCC(Nc2ccc(C3CCN(CC4CCN(CC(=O)N5CCC(Nc6ncc(F)c(-c7cccc(-n8ccccc8=O)c7)n6)CC5)CC4)CC3)c(F)c2)C(=O)N1 (stereo not drawn) [Compound 314, 3-((3-fluoro-4-(1-((1-(2-(4-((5-fluoro-4-(3-(2-oxopyridin-1(2H)-yl)phenyl)pyrimidin-2-yl)amino)piperidin-1-yl)-2-oxoethyl)piperidin-4-yl)methyl)piperidin-4-yl)phenyl)amino)piperidine-2,6-dione]",< 500
5,"Cn1nc(C2CCC(=O)NC2=O)c2ccc(C3CCN(CC4CCN(CC(=O)N5CCC(Nc6ncc(F)c(-c7cccc(-n8ccccc8=O)c7)n6)CC5)CC4)CC3)cc21 (stereo not drawn) [Compound 315, 3-(6-(1-((1-(2-(4-((5-fluoro-4-(3-(2-oxopyridin-1(2H)-yl)phenyl)pyrimidin-2-yl)amino)piperidin-1-yl)-2-oxoethyl)piperidin-4-yl)methyl)piperidin-4-yl)-1-methyl-1H-indazol-3-yl)piperidine-2,6-dione]",< 500
6,"O=C1CCC(Nc2ccc(N3CCC(CCN4CCC(C(=O)N[C@H]5CC[C@H](Nc6ncc(F)c(-c7cccc(-n8ccccc8=O)c7)n6)CC5)CC4)CC3)c(F)c2)C(=O)N1 (stereo partly drawn) [Compound 316, trans-1-[2-[1-[4-[(2,6-dioxo-3-piperidyl)amino]-2-fluoro-phenyl]-4-piperidyl]ethyl]-N-[4-[[5-fluoro-4-[3-(2-oxo-1-pyridyl)phenyl]pyrimidin-2-yl]amino]cyclohexyl]piperidine-4-carboxamide]",< 500
7,"O=C1CCC(n2c(=O)oc3cc(N4CCC(N5CCC(C(=O)N[C@H]6CC[C@H](Nc7ncc(F)c(-c8cccc(-n9ccccc9=O)c8)n7)CC6)CC5)CC4)ccc32)C(=O)N1 (stereo partly drawn) [Compound 317, trans-1′-(3-(2,6-dioxopiperidin-3-yl)-2-oxo-2,3-dihydrobenzo[d]oxazol-6-yl)-N-(4-((5-fluoro-4-(3-(2-oxopyridin-1(2H)-yl)phenyl)pyrimidin-2-yl)amino)cyclohexyl)-[1,4′-bipiperidine]-4-carboxamide]",< 500
8,"O=C1CCC(Nc2ccc(C3CCN(CC4CCN(C(=O)[C@H]5CC[C@H](Nc6ncc(F)c(-c7cccc(-n8ccccc8=O)c7)n6)CC5)CC4)CC3)c(F)c2)C(=O)N1 (stereo partly drawn) [Compound 318, trans-3-((3-fluoro-4-(1-((1-(4-((5-fluoro-4-(3-(2-oxopyridin-1(2H)-yl)phenyl)pyrimidin-2-yl)amino)cyclohexane-1-carbonyl)piperidin-4-yl)methyl)piperidin-4-yl)phenyl)amino)piperidine-2,6-dione]",< 500
9,"O=C1CCC(Nc2ccc(N3CCN([C@H]4CC[C@H](C(=O)N[C@H]5CC[C@H](Nc6ncc(F)c(-c7cccc(-n8ccccc8=O)c7)n6)CC5)CC4)CC3)c(F)c2)C(=O)N1 (stereo partly drawn) [Compound 319, trans-trans-4-(4-(4-((2,6-dioxopiperidin-3-yl)amino)-2-fluorophenyl)piperazin-1-yl)-N-(4-((5-fluoro-4-(3-(2-oxopyridin-1(2H)-yl)phenyl)pyrimidin-2-yl)amino)cyclohexyl)cyclohexane-1-carboxamide]",< 500
10,"O=C1CCC(n2c(=O)oc3cc(C4CCN(CCC5CCN(C(=O)[C@H]6CC[C@H](Nc7ncc(F)c(-c8cccc(-n9ccccc9=O)c8)n7)CC6)CC5)CC4)ccc32)C(=O)N1 (stereo partly drawn) [Compound 321, trans-3-(6-(1-(2-(1-(4-((5-fluoro-4-(3-(2-oxopyridin-1(2H)-yl)phenyl)pyrimidin-2-yl)amino)cyclohexane-1-carbonyl)piperidin-4-yl)ethyl)piperidin-4-yl)-2-oxobenzo[d]oxazol-3 (2H)-yl)piperidine-2,6-dione]",< 500

# Second part, the compound after the results:
row,DC50 [nM],SMILES
1,< 500,"O=C1CCC(Nc2ccc(C3CCN(CCC4CCN(C(=O)[C@H]5CC[C@H](Nc6ncc(F)c(-c7cccc(-n8ccccc8=O)c7)n6)CC5)CC4)CC3)c(F)c2)C(=O)N1 (stereo partly drawn) [Compound 322, trans-3-((3-fluoro-4-(1-(2-(1-((1r,4r)-4-((5-fluoro-4-(3-(2-oxopyridin-1(2H)-yl)phenyl)pyrimidin-2-yl)amino)cyclohexane-1-carbonyl)piperidin-4-yl)ethyl)piperidin-4-yl)phenyl)amino)piperidine-2,6-dione]"
2,< 500,"O=C1CCC(n2c(=O)oc3cc(C4CCN(CC5CCN(C(=O)[C@H]6CC[C@H](Nc7ncc(F)c(-c8cccc(-n9ccccc9=O)c8)n7)CC6)CC5)CC4)ccc32)C(=O)N1 (stereo partly drawn) [Compound 323, trans-3-(6-(1-((1-(4-((5-fluoro-4-(3-(2-oxopyridin-1(2H)-yl)phenyl)pyrimidin-2-yl)amino)cyclohexane-1-carbonyl)piperidin-4-yl)methyl)piperidin-4-yl)-2-oxobenzo[d]oxazol-3 (2H)-yl)piperidine-2,6-dione]"
3,< 500,"O=C1CCC(n2c(=O)oc3cc(C4CCN(CCC5CCN(C(=O)[C@H]6C[C@@H](Nc7ncc(F)c(-c8cccc(-n9ccccc9=O)c8)n7)C6)CC5)CC4)ccc32)C(=O)N1 (stereo partly drawn) [Compound 325, cis-3-(6-(1-(2-(1-(3-((5-fluoro-4-(3-(2-oxopyridin-1(2H)-yl)phenyl)pyrimidin-2-yl)amino)cyclobutane-1-carbonyl)piperidin-4-yl)ethyl)piperidin-4-yl)-2-oxobenzo[d]oxazol-3 (2H)-yl)piperidine-2,6-dione]"
4,< 500,"O=C1CCC(Nc2ccc(N3CCN(CC4CCN(CC(=O)N[C@H]5CC[C@H](Nc6ncc(F)c(-c7cccc(-n8ccccc8=O)c7)n6)CC5)CC4)CC3)c(F)c2)C(=O)N1 (stereo partly drawn) [Compound 326, trans-2-(4-((4-(4-((2,6-dioxopiperidin-3-yl)amino)-2-fluorophenyl)piperazin-1-yl)methyl)piperidin-1-yl)-N-(4-((5-fluoro-4-(3-(2-oxopyridin-1(2H)-yl)phenyl)pyrimidin-2-yl)amino)cyclohexyl)acetamide]"
5,< 500,"O=C1CCC(Nc2ccc(N3CCC(CN4CCN(CC(=O)N[C@H]5CC[C@H](Nc6ncc(F)c(-c7cccc(-n8ccccc8=O)c7)n6)CC5)CC4)CC3)c(F)c2)C(=O)N1 (stereo partly drawn) [Compound 327, trans-2-[4-[[1-[4-[(2,6-dioxo-3-piperidyl)amino]-2-fluoro-phenyl]-4-piperidyl]methyl]piperazin-1-yl]-N-[4-[[5-fluoro-4-[3-(2-oxo-1-pyridyl)phenyl]pyrimidin-2-yl]amino]cyclohexyl]acetamide]"
6,1000 to 5000,"O=C1CCC(n2c(=O)oc3cc(N4CCC(CCN5CCC(C(=O)N[C@H]6CC[C@H](Nc7ncc(F)c(-c8cccc(-n9ccccc9=O)c8)n7)CC6)CC5)CC4)ccc32)C(=O)N1 (stereo partly drawn) [Compound 329, trans-1-[2-[1-[3-(2,6-dioxo-3-piperidyl)-2-oxo-1,3-benzoxazol-6-yl]-4-piperidyl]ethyl]-N-[4-[[5-fluoro-4-[3-(2-oxo-1-pyridyl)phenyl]pyrimidin-2-yl]amino]cyclohexyl]piperidine-4-carboxamide]"
7,< 500,"O=C1CCC(n2c(=O)oc3cc(N4CCC(CCN5CCC(C(=O)N6CCC(Nc7ncc(F)c(-c8cccc(-n9ccccc9=O)c8)n7)CC6)CC5)CC4)ccc32)C(=O)N1 (stereo not drawn) [Compound 330, 3-[6-[4-[2-[4-[4-[[5-fluoro-4-[3-(2-oxo-1-pyridyl)phenyl]pyrimidin-2-yl]amino]piperidine-1-carbonyl]-1-piperidyl]ethyl]-1-piperidyl]-2-oxo-1,3-benzoxazol-3-yl]piperidine-2,6-dione]"

# Same assay, conditions: read-out: HiBIT-degradation MOLT4 PIP4k2C 24 hours DC50; 24 hours incubation, MOLT-4, top concentration 10 micromolar
row,DC50 [nM],SMILES
1,< 500,"O=C1CCC(Nc2ccc(C3CCN(C4CCN(CCC(=O)N[C@H]5CC[C@H](Nc6ncc(F)c(-c7cccc(-n8ccccc8=O)c7)n6)CC5)CC4)CC3)c(F)c2)C(=O)N1 (stereo partly drawn) [Compound 328, trans-3-(4-(4-((2,6-dioxopiperidin-3-yl)amino)-2-fluorophenyl)-[1,4′-bipiperidin]-1′-yl)-N-(4-((5-fluoro-4-(3-(2-oxopyridin-1(2H)-yl)phenyl)pyrimidin-2-yl)amino)cyclohexyl)propanamide]"
